The source of these data is ChEMBL document CHEMBL6127064, “Discovery of GNE-6893, a Potent, Selective, Orally Bioavailable Small Molecule Inhibitor of HPK1” (ACS Med Chem Lett, 2024).

Data set [1] is described as follows: Inhibition of human full length HPK1-T165E/S171E mutant expressed in baculovirus expression system assessed as inhibition of SLP76 phosphorylation using biotinylated SLP76 as substrate preincubated for 30 mins followed by incubation with substrate in presence of ATP and measured for 60 mins by HTRF assay. (In TR-FRET formats the signal depends on donor and acceptor labels being close together.)

Data set [2] addresses T1, Mitogen-activated protein kinase kinase kinase kinase 1 (Homo sapiens, UniProt Q92918). Nature of the data set: Inhibition of HPK1 in human Jurkat cells assessed as inhibition of anti-CD3/anti-CD28-induced SLP76 phosporylation at Ser376 residue incubated for 30 mins by ELISA. Type of data set: cell-based.
The target in data set [3] is T1, Mitogen-activated protein kinase kinase kinase kinase 1. Nature of the data set: Inhibition of HPK1 in primary human Pan T cells assessed as increase in IL-2 secretion pretreated for 30 mins followed by incubation with anti-CD3/anti-CD28 and measured after 4 hrs by MSD assay. Type of data set: cell-based, T cell.
Data set [4] in a line: Half life in Sprague-Dawley rat at 0.5 mg/kg, iv measured for 8 hrs by LC-MS/MS analysis. It is filed as ADME, organism-based. The settings on record: in vivo.
A short description of data set [5]: Volume of distribution at steady state in C57BL/6 mouse at 25 mg/kg, po or 1 mg/kg, iv measured for 24 hrs by LC-MS/MS analysis. Type of data set: ADME, organism-based. The settings on record: in vivo.
Data set [6] in a line: Half life in C57BL/6 mouse at 25 mg/kg, po or 1 mg/kg, iv measured for 24 hrs by LC-MS/MS analysis. It is filed as ADME, organism-based. The note with it: in vivo.
Data set [7] is described as follows: Oral bioavailability in Sprague-Dawley rat. It is filed as ADME, organism-based. The note with it: in vivo.
A short description of data set [8]: Protein binding in cynomolgus monkey plasma. Type of data set: ADME, cell-free, Macaca fascicularis. The settings on record: read-out: PPB (converted).
The nature of data set [9]: Volume of distribution at steady state in Beagle dog at 0.5 mg/kg, po or 0.5 mg/kg, iv measured for 24 hrs by LC/MS/MS analysis. It is filed as ADME, organism-based, Canis lupus familiaris. The settings on record: in vivo.
A short description of data set [10]: Oral bioavailability in Beagle dog at 0.5 mg/kg measured for 24 hrs by LC/MS/MS analysis. Type of data set: ADME, organism-based, Canis lupus familiaris. The note with it: in vivo.
Data set [11] in a line: Oral bioavailability in cynomolgus monkey at 0.5 mg/kg measured for 24 hrs by LC/MS/MS analysis. The note with it: in vivo. It is filed as ADME, organism-based, Macaca fascicularis.
The next data set has as its target Aurora kinase B (Homo sapiens, UniProt Q96GD4). Put plainly: Inhibition of Aurora kinase B (unknown origin).
Data set [12] addresses Leucine-rich repeat serine/threonine-protein kinase 2 (Homo sapiens, UniProt Q5S007). Put plainly: Inhibition of LRRK2 (unknown origin).
The target of data set [13] is T2, Mitogen-activated protein kinase kinase kinase kinase 2 (Homo sapiens, UniProt Q12851).
T2 sequence (Q12851 whole entry): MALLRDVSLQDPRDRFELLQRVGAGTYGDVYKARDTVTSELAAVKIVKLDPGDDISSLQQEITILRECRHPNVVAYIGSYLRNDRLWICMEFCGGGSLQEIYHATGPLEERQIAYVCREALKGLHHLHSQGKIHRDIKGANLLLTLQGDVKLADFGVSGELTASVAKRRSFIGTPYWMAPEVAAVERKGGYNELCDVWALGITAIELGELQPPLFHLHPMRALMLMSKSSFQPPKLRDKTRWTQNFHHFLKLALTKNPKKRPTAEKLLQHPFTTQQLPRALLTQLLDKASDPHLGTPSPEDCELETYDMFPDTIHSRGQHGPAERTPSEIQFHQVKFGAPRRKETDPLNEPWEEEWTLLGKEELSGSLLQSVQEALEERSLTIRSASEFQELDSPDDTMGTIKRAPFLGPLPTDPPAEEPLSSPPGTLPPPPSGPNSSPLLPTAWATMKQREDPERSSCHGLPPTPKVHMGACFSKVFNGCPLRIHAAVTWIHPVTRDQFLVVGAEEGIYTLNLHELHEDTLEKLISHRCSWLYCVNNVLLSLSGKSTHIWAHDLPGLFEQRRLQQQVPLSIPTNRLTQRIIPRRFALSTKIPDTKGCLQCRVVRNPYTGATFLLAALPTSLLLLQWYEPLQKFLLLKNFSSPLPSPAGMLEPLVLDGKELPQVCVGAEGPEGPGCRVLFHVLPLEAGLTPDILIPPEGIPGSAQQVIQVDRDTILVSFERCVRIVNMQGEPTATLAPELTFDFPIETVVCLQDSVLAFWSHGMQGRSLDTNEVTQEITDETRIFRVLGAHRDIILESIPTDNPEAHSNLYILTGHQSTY
Put plainly: Inhibition of GCK (unknown origin).

Data set [14] is described as follows: Selectivity ratio of IC50 for inhibition of GCK (unknown origin) to Ki for inhibition of human full length HPK1-T165E/S171E mutant expressed in baculovirus expression system.
Data set [15] is described as follows: Selectivity ratio of IC50 for inhibition of GLK (unknown origin) to Ki for inhibition of human full length HPK1-T165E/S171E mutant expressed in baculovirus expression system.
The target of data set [16] is Mitogen-activated protein kinase kinase kinase kinase 4 (Homo sapiens, UniProt O95819). Nature of the data set: Inhibition of MAP4K4 (unknown origin).
Data set [17] in a line: Selectivity ratio of IC50 for inhibition of MAP4K4 (unknown origin) to Ki for inhibition of human full length HPK1-T165E/S171E mutant expressed in baculovirus expression system.
Data set [18] in a line: Selectivity ratio of IC50 for inhibition of MINK1 (unknown origin) to Ki for inhibition of human full length HPK1-T165E/S171E mutant expressed in baculovirus expression system.
Data set [19] in a line: Inhibition of KHS1 (unknown origin). The arrangement: species or system Homo sapiens.
In data set [20] the target is T3, D(4) dopamine receptor (Homo sapiens) (UniProt P21917).
T3 sequence (whole entry): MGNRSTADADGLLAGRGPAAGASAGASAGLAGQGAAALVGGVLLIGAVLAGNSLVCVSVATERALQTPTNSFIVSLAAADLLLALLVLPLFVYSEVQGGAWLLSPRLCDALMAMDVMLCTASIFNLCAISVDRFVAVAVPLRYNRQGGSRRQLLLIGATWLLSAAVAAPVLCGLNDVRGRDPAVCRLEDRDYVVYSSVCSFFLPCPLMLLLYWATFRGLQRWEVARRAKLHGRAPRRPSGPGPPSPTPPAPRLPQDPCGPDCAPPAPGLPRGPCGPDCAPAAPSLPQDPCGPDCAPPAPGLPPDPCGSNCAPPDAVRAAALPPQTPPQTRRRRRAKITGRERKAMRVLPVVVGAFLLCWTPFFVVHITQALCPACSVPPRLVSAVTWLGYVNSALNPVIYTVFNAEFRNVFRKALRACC
Put plainly: Inhibition of dopamine D4 receptor (unknown origin) at 10 uM.

For data set [21], the target named is Voltage-gated inwardly rectifying potassium channel KCNH2 (Homo sapiens, UniProt Q12809). Put plainly: Inhibition of hERG. Type of data set: toxicity. On the technique in general: Block of hERG is tested as a sign of cardiac risk.
For another data set, the system named is Hepatocyte. Nature of the data set: Cytotoxicity against human primary hepatocytes upto 100 uM. Type of data set: toxicity, cell-based.
Data set [22] in a line: Cytotoxicity against human liver-microtissues upto 100 uM. Type of data set: toxicity, tissue-based.

A word on the Ki: it is a measure of affinity in units of concentration, obtained from inhibition or displacement. What is called IC50 is the concentration that inhibits the measured activity by half. One may read the EC50 as the concentration that produces a half-maximal response. The term half-life denotes how long it takes for the measured level to halve. Usually bioavailability stands for dose-corrected exposure relative to a reference, in per cent. As usually defined, the inhibition is the percentage by which the read-out fell short of the control.

Structures are written as SMILES.

T1 sequence (Q92918 whole entry): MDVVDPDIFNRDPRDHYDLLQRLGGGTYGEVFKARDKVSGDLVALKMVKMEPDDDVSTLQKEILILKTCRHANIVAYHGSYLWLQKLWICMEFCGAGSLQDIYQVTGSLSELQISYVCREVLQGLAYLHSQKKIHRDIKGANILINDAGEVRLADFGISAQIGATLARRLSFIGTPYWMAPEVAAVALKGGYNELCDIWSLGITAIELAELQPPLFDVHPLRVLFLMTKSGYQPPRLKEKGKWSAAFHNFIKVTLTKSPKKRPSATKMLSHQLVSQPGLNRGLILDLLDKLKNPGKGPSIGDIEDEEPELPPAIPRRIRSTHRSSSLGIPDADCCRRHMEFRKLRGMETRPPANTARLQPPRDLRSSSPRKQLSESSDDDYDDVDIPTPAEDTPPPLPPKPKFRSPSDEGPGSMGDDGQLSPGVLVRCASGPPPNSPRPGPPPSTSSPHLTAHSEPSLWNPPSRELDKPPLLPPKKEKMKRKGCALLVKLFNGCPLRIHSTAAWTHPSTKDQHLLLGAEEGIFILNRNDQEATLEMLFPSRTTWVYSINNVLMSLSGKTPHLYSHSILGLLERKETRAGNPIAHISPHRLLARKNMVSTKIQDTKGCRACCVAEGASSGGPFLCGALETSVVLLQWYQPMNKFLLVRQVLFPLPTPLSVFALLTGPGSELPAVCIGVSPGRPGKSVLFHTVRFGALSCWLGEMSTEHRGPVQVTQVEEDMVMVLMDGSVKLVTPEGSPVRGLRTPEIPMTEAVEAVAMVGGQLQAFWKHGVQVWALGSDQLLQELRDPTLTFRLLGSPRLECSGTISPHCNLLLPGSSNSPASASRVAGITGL
Voltage-gated inwardly rectifying potassium channel KCNH2, sequence (Q12809 whole entry): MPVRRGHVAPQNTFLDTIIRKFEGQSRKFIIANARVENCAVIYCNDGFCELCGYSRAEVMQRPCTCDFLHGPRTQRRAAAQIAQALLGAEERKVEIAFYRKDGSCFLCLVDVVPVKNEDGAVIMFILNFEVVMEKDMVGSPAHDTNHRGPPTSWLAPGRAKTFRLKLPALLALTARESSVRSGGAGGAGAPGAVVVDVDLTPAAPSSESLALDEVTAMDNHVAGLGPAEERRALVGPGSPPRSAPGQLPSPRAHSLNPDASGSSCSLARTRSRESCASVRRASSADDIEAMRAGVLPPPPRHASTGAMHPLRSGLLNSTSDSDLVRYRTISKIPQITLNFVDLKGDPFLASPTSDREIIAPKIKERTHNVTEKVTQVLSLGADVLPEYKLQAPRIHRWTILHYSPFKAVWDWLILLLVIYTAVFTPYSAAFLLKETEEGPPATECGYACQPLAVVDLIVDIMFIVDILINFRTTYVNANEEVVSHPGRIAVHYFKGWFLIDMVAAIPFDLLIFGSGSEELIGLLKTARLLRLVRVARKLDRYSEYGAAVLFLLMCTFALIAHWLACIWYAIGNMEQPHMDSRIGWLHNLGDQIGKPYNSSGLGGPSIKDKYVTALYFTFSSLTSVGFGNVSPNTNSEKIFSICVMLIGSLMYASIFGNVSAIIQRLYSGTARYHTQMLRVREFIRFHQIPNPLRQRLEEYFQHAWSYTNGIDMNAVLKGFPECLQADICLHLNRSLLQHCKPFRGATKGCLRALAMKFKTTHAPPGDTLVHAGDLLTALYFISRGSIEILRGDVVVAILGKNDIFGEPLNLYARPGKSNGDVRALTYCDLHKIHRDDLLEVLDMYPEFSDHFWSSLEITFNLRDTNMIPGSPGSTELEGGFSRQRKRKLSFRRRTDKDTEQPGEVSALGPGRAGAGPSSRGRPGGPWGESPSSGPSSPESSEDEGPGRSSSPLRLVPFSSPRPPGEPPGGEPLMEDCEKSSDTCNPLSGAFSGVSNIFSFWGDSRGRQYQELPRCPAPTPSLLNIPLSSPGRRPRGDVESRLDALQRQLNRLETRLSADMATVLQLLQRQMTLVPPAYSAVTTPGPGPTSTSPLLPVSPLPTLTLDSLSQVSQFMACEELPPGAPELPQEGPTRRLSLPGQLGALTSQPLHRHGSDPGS
Mitogen-activated protein kinase kinase kinase kinase 4, sequence (O95819 whole entry): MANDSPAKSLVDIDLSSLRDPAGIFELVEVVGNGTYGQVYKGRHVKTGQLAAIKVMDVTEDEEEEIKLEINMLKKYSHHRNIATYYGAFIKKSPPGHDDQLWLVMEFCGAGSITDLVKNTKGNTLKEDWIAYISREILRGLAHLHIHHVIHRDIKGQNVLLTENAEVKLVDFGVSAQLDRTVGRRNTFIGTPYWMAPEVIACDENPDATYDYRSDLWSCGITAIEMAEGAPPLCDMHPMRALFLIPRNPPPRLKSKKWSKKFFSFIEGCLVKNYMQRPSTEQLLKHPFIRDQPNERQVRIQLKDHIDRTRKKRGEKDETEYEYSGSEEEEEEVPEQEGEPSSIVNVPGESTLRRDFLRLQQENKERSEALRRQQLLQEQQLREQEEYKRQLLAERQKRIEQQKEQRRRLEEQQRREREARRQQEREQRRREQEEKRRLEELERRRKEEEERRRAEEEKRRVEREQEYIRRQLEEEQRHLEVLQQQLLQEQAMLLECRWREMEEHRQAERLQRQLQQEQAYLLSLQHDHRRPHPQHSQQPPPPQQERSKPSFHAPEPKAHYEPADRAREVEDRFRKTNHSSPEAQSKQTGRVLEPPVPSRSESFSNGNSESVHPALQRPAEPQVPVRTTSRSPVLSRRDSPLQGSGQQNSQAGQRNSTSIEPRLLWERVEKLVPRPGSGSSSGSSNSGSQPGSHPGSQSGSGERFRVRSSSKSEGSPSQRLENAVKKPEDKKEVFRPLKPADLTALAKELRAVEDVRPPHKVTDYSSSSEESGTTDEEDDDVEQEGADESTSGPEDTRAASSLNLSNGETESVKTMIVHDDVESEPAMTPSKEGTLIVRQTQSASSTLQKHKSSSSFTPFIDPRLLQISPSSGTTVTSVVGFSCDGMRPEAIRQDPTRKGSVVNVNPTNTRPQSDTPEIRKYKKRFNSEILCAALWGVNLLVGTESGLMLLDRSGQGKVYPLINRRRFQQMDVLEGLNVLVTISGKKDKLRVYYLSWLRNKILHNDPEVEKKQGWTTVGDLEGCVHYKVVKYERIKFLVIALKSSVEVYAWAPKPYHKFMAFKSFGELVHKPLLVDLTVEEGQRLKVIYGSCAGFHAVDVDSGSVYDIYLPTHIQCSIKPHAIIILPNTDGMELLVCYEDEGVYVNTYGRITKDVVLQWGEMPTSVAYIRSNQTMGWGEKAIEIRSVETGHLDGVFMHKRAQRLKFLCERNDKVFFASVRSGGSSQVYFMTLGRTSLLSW
Aurora kinase B, sequence (Q96GD4 whole entry): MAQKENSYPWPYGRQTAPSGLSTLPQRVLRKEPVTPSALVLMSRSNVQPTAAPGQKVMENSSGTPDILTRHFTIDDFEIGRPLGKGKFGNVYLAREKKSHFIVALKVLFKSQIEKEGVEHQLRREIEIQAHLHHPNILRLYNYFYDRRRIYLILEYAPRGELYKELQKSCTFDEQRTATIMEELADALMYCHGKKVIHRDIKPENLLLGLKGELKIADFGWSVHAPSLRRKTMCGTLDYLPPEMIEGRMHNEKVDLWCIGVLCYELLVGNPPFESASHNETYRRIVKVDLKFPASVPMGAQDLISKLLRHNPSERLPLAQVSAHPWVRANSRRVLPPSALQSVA

With `Cc1c(-c2cc3cc(NC(=O)O[C@H]4COC[C@@H]4C)ncc3c(N)c2F)cnc2c1NCCO2`, the Ki in [1] was below 0.019 nM. The IC50 in [2] turned out to be 44 nM; against Aurora kinase B it was 46 nM; in data set [12], 31 nM; in data set [13], 1.3 nM; in data set [16], 3.3 nM; in [19], 3.1 nM. In data set [21], this molecule came in with an IC50 of 28000 nM. Besides, the EC50 in data set [3] was 6.4 nM. Besides, the values for the half-life in data set [4] and in [6] were 1.3 h and 1.7 h, respectively. Further, the Vdss in [5] was determined as 1.8 L/kg; in data set [9] it was 2.2 L/kg. Besides, the bioavailability in data set [7] was 30%; in [10], 46%; in [11] it was 53%. In addition, the fraction unbound in data set [8] is 0.116. For the same molecule, the Ratio in [14] is above 69; in [15], above 40; in [17], above 180; in [18], above 200. For the same molecule, the inhibition in data set [20] was found to be 50%. The Activity entry (in the data set on Hepatocyte; in data set [22]) was “Non-Toxic” in each case.
